In PMC8600679, “Substituted Two- to Five-Ring Polycyclic Aromatic Compounds Are Potent Agonists of Atlantic Cod (Gadus morhua) Aryl Hydrocarbon Receptors Ahr1a and Ahr2a” (Environmental Science & Technology, 2021):

The molecules below were run against Atlantic cod Ahr1a (Gadus morhua, UniProt A0A6H1Z2L5) (assay: cell-based). Settings: COS-7 cells, 24 h exposure; read-out: Ahr1a EC50.
Chain of Atlantic cod Ahr1a (A0A6H1Z2L5 1-957): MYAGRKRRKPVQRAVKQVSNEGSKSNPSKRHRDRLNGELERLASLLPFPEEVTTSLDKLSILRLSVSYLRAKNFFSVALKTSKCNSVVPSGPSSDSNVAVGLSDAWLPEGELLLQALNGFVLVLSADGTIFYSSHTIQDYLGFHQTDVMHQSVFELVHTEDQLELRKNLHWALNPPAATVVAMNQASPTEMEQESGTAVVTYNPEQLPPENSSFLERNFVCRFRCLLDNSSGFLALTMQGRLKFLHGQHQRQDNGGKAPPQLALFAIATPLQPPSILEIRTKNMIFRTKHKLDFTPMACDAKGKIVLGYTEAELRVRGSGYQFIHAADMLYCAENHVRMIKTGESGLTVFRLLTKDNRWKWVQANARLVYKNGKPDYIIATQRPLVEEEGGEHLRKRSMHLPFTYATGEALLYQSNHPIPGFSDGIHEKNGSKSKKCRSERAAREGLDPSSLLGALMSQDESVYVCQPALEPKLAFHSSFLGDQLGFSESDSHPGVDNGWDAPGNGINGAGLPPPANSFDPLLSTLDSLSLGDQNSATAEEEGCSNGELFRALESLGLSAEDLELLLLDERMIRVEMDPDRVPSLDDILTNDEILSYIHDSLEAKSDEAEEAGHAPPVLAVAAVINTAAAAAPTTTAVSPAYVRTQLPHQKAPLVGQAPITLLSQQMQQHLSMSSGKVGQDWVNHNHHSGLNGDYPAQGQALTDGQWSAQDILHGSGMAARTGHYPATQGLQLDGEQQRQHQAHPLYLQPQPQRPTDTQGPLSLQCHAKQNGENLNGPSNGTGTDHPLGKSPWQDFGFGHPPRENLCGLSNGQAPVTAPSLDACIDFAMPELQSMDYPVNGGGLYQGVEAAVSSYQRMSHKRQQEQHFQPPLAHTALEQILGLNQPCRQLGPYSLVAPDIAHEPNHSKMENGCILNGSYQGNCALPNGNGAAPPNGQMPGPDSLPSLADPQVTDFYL
Chain of Atlantic cod Ahr1a (A0A8C5CZZ9 1-645 partner): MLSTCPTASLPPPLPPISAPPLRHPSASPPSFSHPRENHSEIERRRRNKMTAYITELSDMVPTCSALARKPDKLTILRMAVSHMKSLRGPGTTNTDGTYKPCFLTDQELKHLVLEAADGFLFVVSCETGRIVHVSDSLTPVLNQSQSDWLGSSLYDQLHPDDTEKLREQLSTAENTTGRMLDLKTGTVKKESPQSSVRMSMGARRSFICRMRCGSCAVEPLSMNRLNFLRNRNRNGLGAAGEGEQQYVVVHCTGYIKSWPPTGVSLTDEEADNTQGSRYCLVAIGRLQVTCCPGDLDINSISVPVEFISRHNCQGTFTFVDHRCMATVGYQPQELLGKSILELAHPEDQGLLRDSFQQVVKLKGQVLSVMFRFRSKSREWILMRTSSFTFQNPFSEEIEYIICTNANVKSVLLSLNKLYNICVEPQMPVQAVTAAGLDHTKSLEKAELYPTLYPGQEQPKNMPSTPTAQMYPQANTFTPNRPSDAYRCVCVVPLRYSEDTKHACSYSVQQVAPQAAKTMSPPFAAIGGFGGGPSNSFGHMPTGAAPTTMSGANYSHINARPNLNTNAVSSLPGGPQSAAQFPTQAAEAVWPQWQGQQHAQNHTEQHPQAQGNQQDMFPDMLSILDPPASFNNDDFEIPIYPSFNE

Row | SMILES | EC50
1 | Oc1cccc2ccc3c4ccccc4ccc3c12 [4-COH, Chrysene-4-ol] | 1340 nM

Same assay, conditions: EC25 of TCDD divided by concentration of PAC giving 25% of TCDD response

Row | SMILES | Ahr1a REP25
2 | Oc1cccc2ccc3c4ccccc4ccc3c12 [4-COH, Chrysene-4-ol] | 0.00105

Same assay, conditions: Welch's t-test, Supporting Table S6

Row | SMILES | Efficacy compared to TCDD with Ahr1a
3 | Oc1cccc2ccc3c4ccccc4ccc3c12 [4-COH, Chrysene-4-ol] | efficacies similar to that of TCDD

Same assay, conditions: in vitro transactivation

Row | SMILES | Activation of Ahr1a (agonist or not)
4 | Cc1ccc(C)c2c1ccc1ccccc12 [1,4-DMP, 1,4-Dimethylphenanthrene] | did not activate
5 | Cc1ccc2c(ccc3c(C)cccc32)c1 [1,7-DMP, 1,7-Dimethylphenanthrene] | did not activate
6 | Cc1ccc2c(ccc3cc(C)ccc32)c1 [2,7-DMP, 2,7-Dimethylphenanthrene] | did not activate
7 | Cc1ccc2ccc3ccc(C)cc3c2c1 [3,6-DMP, 3,6-Dimethylphenanthrene] | did not activate
8 | CCc1ccc2ccc3ccccc3c2c1 [3-EP, 3-Ethylphenanthrene] | did not activate
9 | c1ccc2c(c1)sc1ccccc12 [DBT, Dibenzothiophene] | did not activate
10 | c1ccc2c(c1)Cc1ccccc1-2 [FLU, Fluorene] | did not activate
11 | c1ccc2ccccc2c1 [NAP, Naphthalene] | did not activate
12 | c1ccc2c(c1)ccc1ccccc12 [PHE, Phenanthrene] | did not activate
13 | c1cc2ccc3cccc4ccc(c1)c2c34 [PYR, Pyrene] | did not activate

Same assay, conditions: percent of maximum efficacy determined for TCDD; COS-7 cells, 24 h exposure; None = no agonistic response significantly different from solvent

Row | SMILES | Ahr1a Relative Emax (%)
14 | Cc1ccc(C)c2c1ccc1ccccc12 [1,4-DMP, 1,4-Dimethylphenanthrene] | None
15 | Cc1ccc2c(ccc3c(C)cccc32)c1 [1,7-DMP, 1,7-Dimethylphenanthrene] | None
16 | Cc1ccc2c(ccc3cc(C)ccc32)c1 [2,7-DMP, 2,7-Dimethylphenanthrene] | None
17 | Cc1ccc2ccc3ccc(C)cc3c2c1 [3,6-DMP, 3,6-Dimethylphenanthrene] | None
18 | CCc1ccc2ccc3ccccc3c2c1 [3-EP, 3-Ethylphenanthrene] | None
19 | c1ccc2c(c1)sc1ccccc12 [DBT, Dibenzothiophene] | None
20 | c1ccc2c(c1)Cc1ccccc1-2 [FLU, Fluorene] | None
21 | c1ccc2ccccc2c1 [NAP, Naphthalene] | None
22 | c1ccc2c(c1)ccc1ccccc12 [PHE, Phenanthrene] | None
23 | c1cc2ccc3cccc4ccc(c1)c2c34 [PYR, Pyrene] | None

Same assay, conditions: percent of maximum efficacy determined for TCDD; COS-7 cells, 24 h exposure; None = no agonistic response significantly different from solvent; read-out: Ahr1a Relative Emax (%)

Row | SMILES | Emax
24 | Oc1cccc2ccc3c4ccccc4ccc3c12 [4-COH, Chrysene-4-ol] | 91.7%

These molecules were tested against T1, Atlantic cod Ahr2a (Gadus morhua, UniProt A0A6H1Z3G8) (assay: cell-based). Settings: COS-7; curve did not reach a plateau: relative response at the highest tested concentration, percent of TCDD maximum; read-out: Ahr2a Relative Emax (%), marked *.
T1 sequence (A0A6H1Z3G8 1-1127): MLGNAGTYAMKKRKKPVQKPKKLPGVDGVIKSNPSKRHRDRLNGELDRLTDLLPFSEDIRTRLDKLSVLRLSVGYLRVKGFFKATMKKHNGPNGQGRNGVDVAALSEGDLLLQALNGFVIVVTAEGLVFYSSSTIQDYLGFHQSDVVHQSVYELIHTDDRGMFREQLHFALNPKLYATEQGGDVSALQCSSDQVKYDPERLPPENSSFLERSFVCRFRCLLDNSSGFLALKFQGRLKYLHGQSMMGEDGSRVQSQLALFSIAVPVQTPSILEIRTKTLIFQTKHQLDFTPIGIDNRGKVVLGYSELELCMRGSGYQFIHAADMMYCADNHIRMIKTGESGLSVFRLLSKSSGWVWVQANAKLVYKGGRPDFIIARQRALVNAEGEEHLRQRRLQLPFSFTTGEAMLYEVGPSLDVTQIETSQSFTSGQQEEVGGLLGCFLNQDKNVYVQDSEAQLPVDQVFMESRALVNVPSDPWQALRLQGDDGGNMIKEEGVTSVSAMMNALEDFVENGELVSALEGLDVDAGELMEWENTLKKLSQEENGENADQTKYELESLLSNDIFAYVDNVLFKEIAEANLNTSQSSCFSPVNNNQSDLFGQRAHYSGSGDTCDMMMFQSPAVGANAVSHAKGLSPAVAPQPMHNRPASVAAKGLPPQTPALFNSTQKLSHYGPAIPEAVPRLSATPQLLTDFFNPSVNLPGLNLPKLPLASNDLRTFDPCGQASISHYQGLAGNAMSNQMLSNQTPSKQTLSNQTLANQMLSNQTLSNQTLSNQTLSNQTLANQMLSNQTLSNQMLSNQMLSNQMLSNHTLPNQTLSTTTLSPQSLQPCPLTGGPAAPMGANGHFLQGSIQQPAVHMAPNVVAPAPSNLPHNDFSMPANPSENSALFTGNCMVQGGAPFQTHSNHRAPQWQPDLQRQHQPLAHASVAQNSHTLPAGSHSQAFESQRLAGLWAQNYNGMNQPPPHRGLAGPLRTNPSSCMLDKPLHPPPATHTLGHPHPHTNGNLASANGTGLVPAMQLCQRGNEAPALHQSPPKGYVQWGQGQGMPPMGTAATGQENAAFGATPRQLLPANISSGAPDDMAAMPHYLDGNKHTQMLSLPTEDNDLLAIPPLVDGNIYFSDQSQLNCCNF

Row | SMILES | Emax
25 | Oc1cccc2ccc3c4ccccc4ccc3c12 [4-COH, Chrysene-4-ol] | 98.8%

Same assay, conditions: EC25 of TCDD divided by concentration of PAC giving 25% of TCDD response

Row | SMILES | Ahr2a REP25
26 | Oc1cccc2ccc3c4ccccc4ccc3c12 [4-COH, Chrysene-4-ol] | 0.0016

Same assay, conditions: Supplementary Table S5; read-out: Potency (EC50, nM) Ahr2a

Row | SMILES | EC50
27 | Oc1cccc2ccc3c4ccccc4ccc3c12 [4-COH, Chrysene-4-ol] | 11000 nM

Same assay, conditions: in vitro transactivation

Row | SMILES | Activation of Ahr2a (agonist or not)
28 | Cc1ccc(C)c2c1ccc1ccccc12 [1,4-DMP, 1,4-Dimethylphenanthrene] | did not activate
29 | Cc1ccc2c(ccc3c(C)cccc32)c1 [1,7-DMP, 1,7-Dimethylphenanthrene] | did not activate
30 | Cc1ccc2c(ccc3cc(C)ccc32)c1 [2,7-DMP, 2,7-Dimethylphenanthrene] | did not activate
31 | Cc1ccc2ccc3ccc(C)cc3c2c1 [3,6-DMP, 3,6-Dimethylphenanthrene] | did not activate
32 | CCc1ccc2ccc3ccccc3c2c1 [3-EP, 3-Ethylphenanthrene] | did not activate
33 | c1ccc2c(c1)sc1ccccc12 [DBT, Dibenzothiophene] | did not activate
34 | c1ccc2c(c1)Cc1ccccc1-2 [FLU, Fluorene] | did not activate
35 | c1ccc2ccccc2c1 [NAP, Naphthalene] | did not activate
36 | c1ccc2c(c1)ccc1ccccc12 [PHE, Phenanthrene] | did not activate
37 | c1cc2ccc3cccc4ccc(c1)c2c34 [PYR, Pyrene] | did not activate

Same assay, conditions: percent of maximum efficacy determined for TCDD; COS-7 cells, 24 h exposure; None = no agonistic response significantly different from solvent

Row | SMILES | Ahr2a Relative Emax (%)
38 | Cc1ccc(C)c2c1ccc1ccccc12 [1,4-DMP, 1,4-Dimethylphenanthrene] | None
39 | Cc1ccc2c(ccc3c(C)cccc32)c1 [1,7-DMP, 1,7-Dimethylphenanthrene] | None
40 | Cc1ccc2c(ccc3cc(C)ccc32)c1 [2,7-DMP, 2,7-Dimethylphenanthrene] | None
41 | Cc1ccc2ccc3ccc(C)cc3c2c1 [3,6-DMP, 3,6-Dimethylphenanthrene] | None
42 | CCc1ccc2ccc3ccccc3c2c1 [3-EP, 3-Ethylphenanthrene] | None
43 | c1ccc2c(c1)sc1ccccc12 [DBT, Dibenzothiophene] | None
44 | c1ccc2c(c1)Cc1ccccc1-2 [FLU, Fluorene] | None
45 | c1ccc2ccccc2c1 [NAP, Naphthalene] | None
46 | c1ccc2c(c1)ccc1ccccc12 [PHE, Phenanthrene] | None
47 | c1cc2ccc3cccc4ccc(c1)c2c34 [PYR, Pyrene] | None
